Values joined by “and” are separate entries in the source; they are usually repeats but may differ in a detail not shown here. Identical values can stand only once. Like-named read-outs stand apart in the source and are kept apart here.
Assays:
[1] = biological target: T1, human erythrocyte AChE (hAChE) (Homo sapiens, UniProt P22303); experiment: biochemical; type: biochemical
T1 construct: The human erythrocyte AChE (hAChE, aqueous buffer solution); purchased Sigma Aldrich; host or cells: human erythrocytes
T1 sequence (P22303 32-617 isoform P22303-2 limits assumed): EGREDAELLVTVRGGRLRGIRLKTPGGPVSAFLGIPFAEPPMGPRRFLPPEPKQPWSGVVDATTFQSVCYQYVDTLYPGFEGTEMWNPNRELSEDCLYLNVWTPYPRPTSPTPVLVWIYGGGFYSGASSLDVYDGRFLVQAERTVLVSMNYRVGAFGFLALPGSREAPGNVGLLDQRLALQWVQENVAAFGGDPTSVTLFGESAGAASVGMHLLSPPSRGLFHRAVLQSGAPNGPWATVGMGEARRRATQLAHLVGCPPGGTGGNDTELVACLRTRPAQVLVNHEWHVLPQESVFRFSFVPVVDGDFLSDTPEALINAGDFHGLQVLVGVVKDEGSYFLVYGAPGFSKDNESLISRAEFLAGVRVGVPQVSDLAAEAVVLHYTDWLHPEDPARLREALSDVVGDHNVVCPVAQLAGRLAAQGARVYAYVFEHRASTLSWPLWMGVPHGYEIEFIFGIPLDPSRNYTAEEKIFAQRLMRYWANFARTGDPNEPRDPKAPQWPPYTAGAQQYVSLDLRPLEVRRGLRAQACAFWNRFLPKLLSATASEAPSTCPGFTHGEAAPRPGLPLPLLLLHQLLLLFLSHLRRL

[2] = biological target: T2, BuChE from equine serum (eqBuChE) (Equus caballus, UniProt P81908); experiment: biochemical; type: biochemical
T2 construct: The BuChE freeze-dried from equine serum (eqBuChE, Sigma Aldrich); purchased Sigma Aldrich; host or cells: equine serum
T2 sequence (P81908 whole entry): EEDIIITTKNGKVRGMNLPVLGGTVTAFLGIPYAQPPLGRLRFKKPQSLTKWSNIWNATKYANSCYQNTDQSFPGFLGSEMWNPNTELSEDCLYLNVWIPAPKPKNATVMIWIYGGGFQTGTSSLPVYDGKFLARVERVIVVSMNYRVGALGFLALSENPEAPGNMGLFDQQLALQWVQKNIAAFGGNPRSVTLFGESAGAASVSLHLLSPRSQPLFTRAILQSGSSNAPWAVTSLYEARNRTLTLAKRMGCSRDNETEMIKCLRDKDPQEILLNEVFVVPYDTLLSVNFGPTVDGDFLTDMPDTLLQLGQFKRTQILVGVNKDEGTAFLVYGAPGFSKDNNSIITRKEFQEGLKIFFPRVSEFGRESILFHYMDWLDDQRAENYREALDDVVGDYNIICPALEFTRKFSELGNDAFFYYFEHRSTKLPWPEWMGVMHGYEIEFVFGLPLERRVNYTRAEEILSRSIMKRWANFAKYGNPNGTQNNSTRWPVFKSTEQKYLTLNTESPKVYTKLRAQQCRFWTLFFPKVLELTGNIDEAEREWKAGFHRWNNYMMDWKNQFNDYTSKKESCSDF

Row | Molecule | IC50 ([1]; IC50 hAChE) | IC50 ([2]; IC50 eqBuChE) | also measured
1 | O=P(Oc1ccccc1)(Oc1ccccc1)Oc1ccc(OP(=O)(Oc2ccccc2)Oc2ccccc2)cc1 [Compound 1, Hydroquinone bis(diphenylphosphate)] | 42 µM | 186 µM | –
2 | O=P(Oc1ccccc1)(Oc1ccccc1)Oc1ccc(-c2ccc(OP(=O)(Oc3ccccc3)Oc3ccccc3)cc2)cc1 [Compound 2, 4,4′-dihydroxybiphenyl bis(diphenylphosphate)] | 38.4 µM and 128 µM | 155 µM and 244 µM | –
3 | O=P(Oc1ccccc1)(Oc1ccccc1)Oc1ccc(Sc2ccc(OP(=O)(Oc3ccccc3)Oc3ccccc3)cc2)cc1 [Compound 3, 4,4′-dihydroxydiphenylthioether bis(diphenylphosphate)] | 34 µM | 166 µM | –
4 | O=P(Oc1ccccc1)(Oc1ccccc1)Oc1ccc(Oc2ccc(OP(=O)(Oc3ccccc3)Oc3ccccc3)cc2)cc1 [Compound 4, 4,4′-dihydroxydiphenylether bis(diphenylphosphate)] | 33.9 µM | 118 µM | –
5 | O=P(Oc1ccccc1)(Oc1ccccc1)Oc1cc(OP(=O)(Oc2ccccc2)Oc2ccccc2)cc(OP(=O)(Oc2ccccc2)Oc2ccccc2)c1 [Compound 5, 1,3,5-phloroglucinol tris(bis(diphenylphosphate))] | – | 100 µM | –
6 | CCCCC(CC)(COP(=O)(Oc1ccccc1)Oc1ccccc1)COP(=O)(Oc1ccccc1)Oc1ccccc1 [Compound 6, 2-butyl-2-ethyl-1,3-propanediol bis(diphenylphosphate)] | 26.3 µM | 93.7 µM | –
7 | CCC(COP(=O)(Oc1ccccc1)Oc1ccccc1)(COP(=O)(Oc1ccccc1)Oc1ccccc1)COP(=O)(Oc1ccccc1)Oc1ccccc1 [Compound 7, trimethylolpropane tris(diphenylphosphate)] | 22 µM | 145 µM | –
8 | CCCCC(CC)COP(=O)(Oc1ccccc1)Oc1ccccc1 (stereo not drawn) [Compound A, 2-ethylhexyl diphenylphosphate] | 35 µM | 1.93 µM | –
9 | Cc1ccccc1OP(=O)(Oc1ccccc1C)Oc1ccccc1C [Compound B, Tri(ortho-cresyl)phosphate] | 40.7 µM | 10 µM | –
10 | Cc1cccc(OP(=O)(Oc2cccc(C)c2)Oc2cccc(C)c2)c1 [Compound C, Tri(meta-cresyl)phosphate] | 25.2 µM | 6.24 µM | –
11 | Cc1ccc(OP(=O)(Oc2ccc(C)cc2)Oc2ccc(C)cc2)cc1 [Compound D, Tri(para-cresyl)phosphate] | 26.3 µM | 116 µM | –
12 | O=P(Oc1c(F)cccc1F)(Oc1c(F)cccc1F)Oc1c(F)cccc1F [Compound F, Tri(2,6-difluorophenyl)phosphate] | 12.9 µM | 20 µM | –
13 | CC(C)(C)c1ccc(OP(=O)(Oc2ccccc2)Oc2ccc(C(C)(C)C)cc2)cc1 [Compound H, di(p-tertbutylphenyl)phenylphosphate] | 27.6 µM | 280 µM | –
14 | CC(C)(C)c1ccc(OP(=O)(Oc2ccc(C(C)(C)C)cc2)Oc2ccc(C(C)(C)C)cc2)cc1 [Compound I, Tri(p-tert-butylphenyl)phosphate] | 17 µM | 194 µM | action on acetylcholinesterase, in words [1]: active; action on butyrylcholinesterase, in words [2]: reduced inhibition
15 | NP(=O)(Oc1ccccc1)Oc1ccccc1 [Compound K, Diphenyl phosphoroamidate] | – | – | IC50 [1]: 38.1 µM; IC50 [2]: 136 µM
16 | O=P(OCCCl)(OCCCl)OCCCl [Compound N, tris(chloroethyl)phosphate] | 28.7 µM | 315 µM | –
17 | Saligenin cresyl phosphate [Compound J] | – | – | IC50 eqBuChE [2]: 0.7 mg/L
18 | Tricresyl phosphate [Compound P] | – | – | IC50 hAChE [1]: 16.9 mg/L; IC50 eqBuChE [2]: 0.7 mg/L
